The text below walks through data of publication PMC10819071, “SG-ATT: A Sequence Graph Cross-Attention Representation Architecture for Molecular Property Prediction” (Molecules, 2024).

For orientation: IC50 means the concentration at which inhibition is half-maximal. What is called CC50 is the concentration giving 50% cytotoxicity.

The first data set relates to HBV. The data set is described as follows: in vitro validation of anti-HBV capacity (IC50). As to conditions: Hepatitis B virus, read-out: IC50, In Vitro Validation. It counts as cell-based. An excerpt: (§1) Chronic hepatitis B caused by hepatitis B virus (HBV) is a kind of serious disease. HBV inhibitory drugs are developed from a variety of compounds, and to further explore whether anti-HBV compounds are potentially promising for research, it is necessary to validate their anti-HBV capacity (IC50) and HepG2 hepatocytotoxicity (CC50). We used compounds screened with the fields of target name and target tissue from the CHEMBL database as training data and set the HBV (IC50) concentration and hepatotoxicity concentration (CC50) thresholds at 20 μM (the smaller the IC50 value; the more […]) and 100 μM (higher CC50 concentration indicates lower toxicity), respectively, to convert the compound activity data against the target into binary data for prediction. To validate the reliability of the SG-ATT model, we also used in vitro validation to test the model on IC50 and CC50 to predict the properties of the compounds. Throughout the in vitro validation, we tested the activity data of 100 compounds for IC50 and CC50.
(§2) We counted the model prediction results and listed the top 10 compounds ranked using μM prediction size. The first represents the largest μM, and the 10th represents the smallest μM.
Take `O=C(N[C@H](CO)Cc1ccccc1)/C(NC(=O)c1ccccc1)=C(/Br)c1ccc(Br)cc1` [Br/C(C1=CC=C(Br)C=C1)=C(NC(C2=CC=CC=C2)=O)/ C(N[C@@H](CC3=CC=CC=C3)CO)=O]: the half-inhibitory concentration (IC50) was 4.45 µM.
Regarding `O=C(N[C@H](CO)Cc1ccccc1)/C(NC(=O)c1ccccc1)=C(/Br)c1ccccc1` [Br/C(C1=CC=CC=C1)=C(NC(C2=CC=CC=C2)=O)/ C(N[C@H](CO)CC3=CC=CC=C3)=O], the IC50 is 3.86 µM.
Regarding `O=C(N[C@H](CO)Cc1ccccc1)/C(NC(=O)c1ccccc1)=C(/Br)c1ccccc1Cl` [Br/C(C1=CC=CC=C1Cl)=C(NC(C2=CC=CC=C2)=O)/ C(N[C@@H](CC3=CC=CC=C3)CO)=O], the IC50 was 1.88 µM.
On the same count and under the same terms, in the case of `Cc1cccc(/C=C(/NC(=O)c2ccccc2)C(=O)N[C@H](CO)Cc2ccccc2)c1` [O=C(N[C@H](CO)CC1=CC=CC=C1)/C(NC(C2=CC=CC=C2) =O)=C\C3=CC=CC(C)=C3] it was more than 20 µM; in that of `O=C(N[C@H](CO)Cc1ccccc1)/C(=C\c1ccccc1Br)NC(=O)c1ccccc1` [O=C(N[C@H](CO)CC1=CC=CC=C1)/C(NC(C2=CC=CC=C2)=O) =C\C3=CC=CC=C3Br], more than 20 µM; in that of `O=C(N[C@H](CO)Cc1ccccc1)/C(=C\c1ccccc1Cl)NC(=O)c1ccccc1` [O=C(N[C@H](CO)CC1=CC=CC=C1)/C(NC(C2=CC=CC=C2)=O) =C\C3=CC=CC=C3Cl], more than 20 µM.

Staying with this data set, now noted: Hepatitis B virus; anti-HBV capacity; top 10 compounds ranked by SG-ATT prediction; classification threshold 20 μM; read-out: IC50, In Vitro Validation.
`COc1ccccc1/C(Br)=C(/NC(=O)c1ccc([N+](=O)[O-])cc1)C(=O)N[C@@H](CO)C(C)C` [Br/C(C1=CC=CC=C1OC)=C(NC(C2=CC=C([N+]([O-]) =O)C=C2)=O)/C(N[C@@H](CO)C(C)C)=O]: the IC50 is 2.06 µM.
In the case of `CCN(CC)CCOc1ccc2nc(SCc3ccccc3OC)n(Cc3cccs3)c(=O)c2c1` [O=C1C2=CC(OCCN(CC)CC)=CC=C2N=C (SCC3=C(OC)C=CC=C3)N1CC4=CC=CS4], the IC50 is 1.93 µM.
On the same count and under the same terms, the same measure for `O=C(N[C@@H](Cc1ccccc1)C(=O)N1CCCCC1)c1ccccc1` [O=C(N1CCCCC1)[C@@H](NC(C2=CC=CC=C2) =O)CC3=CC=CC=C3]: more than 20 µM; for `O=C(N[C@H](CO)Cc1ccccc1)/C(=C\c1ccccc1)NC(=O)c1ccccc1F` [O=C(N[C@H](CO)CC1=CC=CC=C1)/C(NC(C2=C(F) C=CC=C2)=O)=C\C3=CC=CC=C3]: more than 20 µM.

Test system in a further data set: not listed separately
The experiment in a line: in vitro validation of HepG2 hepatocytotoxicity (CC50). It counts as cell-based. As to conditions: human, HepG2 cells, top 10 compounds ranked by SG-ATT prediction, classification threshold 100 μM.
Excerpt: as §1, §2
For the compound `O=C(N/C(C(=O)N1CCCCC1)=C(\Br)c1nccs1)c1ccc(F)cc1` [O=C(N/C(C(N1CCCCC1)=O)=C(Br)/C2=NC=CS2) C(C=C3)=CC=C3F], the CC50 is more than 100 µM.
Consider `CC(C)C(CO)NC(=O)[C@H](Cc1ccc(OCCN(C)C)cc1)NC(=O)c1ccccc1` (some centres unmarked) [O=C(NC(CO)C(C)C)[C@@H](NC(C1=CC=CC=C1)=O)CC2=CC=C(OCCN(C)C)C=C2], for which the CC50 was 89.1 µM.

The data set is the same for the next values; noted with them: human, top 10 compounds ranked by SG-ATT prediction, classification threshold 100 μM.
Take `N#Cc1ccc(/C(Br)=C(/NC(=O)c2ccccc2)C(=O)N[C@H](CO)Cc2ccccc2)cc1` [Br/C(C1=CC=C(C#N)C=C1)=C(NC(C2=CC=CC=C2)=O)/ C(N[C@@H](CC3=CC=CC=C3)CO)=O]: the CC50 was more than 100 µM.
Still for that read-out and setting: in the case of `O=C(N[C@H](CO)Cc1ccccc1)/C(NC(=O)c1ccccc1)=C(/Br)c1ccc(O)cc1` [Br/C(C1=CC=C(O)C=C1)=C(NC(C2=CC=CC=C2)=O)/ C(N[C@H](CO)CC3=CC=CC=C3)=O] it was more than 100 µM; in that of `O=C(N[C@H](CO)Cc1ccccc1)/C(NC(=O)c1ccccc1)=C(/Br)c1ccccc1Br` [Br/C(C1=CC=CC=C1Br)=C(NC(C2=CC=CC=C2)=O)/ C(N[C@@H](CC3=CC=CC=C3)CO)=O], more than 100 µM.
On the same count and under the same terms, in the case of `COc1ccccc1/C(Br)=C(/NC(=O)c1ccc([N+](=O)[O-])cc1)C(=O)N[C@@H](CO)CC(C)C` [O=C(N[C@H](CC(C)C)CO)/C(NC(C1=CC=C([N+]([O-])=O) C=C1)=O)=C(Br)\C2=CC=CC=C2OC] it was 86.6 µM; in that of `O=C(N[C@H](CO)Cc1ccccc1)/C(=C\c1ccc(Br)cc1)NC(=O)c1ccccc1` [O=C(N[C@H](CO)CC1=CC=CC=C1)/C (NC(C2=CC=CC=C2)=O)=C\C3=CC=C(Br)C=C3], 72.7 µM; in that of `O=C(N[C@H](CO)Cc1ccccc1)/C(=C\c1ccccc1)NC(=O)c1ccccc1F` [O=C(N[C@H](CO)CC1=CC=CC=C1)/C(NC(C2=C(F) C=CC=C2)=O)=C\C3=CC=CC=C3], more than 100 µM.
With `Cc1cccc(/C=C(/NC(=O)c2ccccc2)C(=O)N[C@H](CO)Cc2ccccc2)c1` [O=C(N[C@H](CO)CC1=CC=CC=C1)/C(NC(C2=CC=CC=C2) =O)=C\C3=CC=CC(C)=C3], the CC50 was more than 100 µM.
Still for that read-out and setting: in the case of `O=C(N[C@H](CO)Cc1ccccc1)/C(=C\c1ccccc1Cl)NC(=O)c1ccccc1` [O=C(N[C@H](CO)CC1=CC=CC=C1)/C(NC(C2=CC=CC=C2)=O) =C\C3=CC=CC=C3Cl] it was more than 100 µM.
